# How the values were obtained:
# Test in all cases: relative viability (nuclei count vs DMSO), 5 days (fraction); higher = more cells survive
# 4EGI-1 + OSI-027 = compound: O=C(O)C(Cc1ccccc1[N+](=O)[O-])=NNc1nc(-c2ccc(Cl)c(Cl)c2)cs1 (mixture of isomers) [4EGI-1] + COc1cccc2cc(-c3nc([C@H]4CC[C@H](C(=O)O)CC4)n4ncnc(N)c34)[nH]c12 [OSI-027] (partner 0.5 µM)
# How it was run: (§1)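 After 5 days of treatment, lung cancer cells in 1536-well plates were fixed and stained in a single step (final 0.05% Triton X-100, 1% formaldehyde, 1 ug/ml Hoechst) and their nuclei counted on 4× images. Treatment had been applied by pin tool the day after seeding as one drug alone or as a fixed anchor-drug dose with five library-drug doses (not always all listed) in √10 steps. Relative viability is the nuclei count of treated wells divided by that of vehicle wells, and values are medians of duplicate plates.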
# XMD8-85 + Alpelisib = compound: CN1CCN(CC1)C2=CC(=C(C=C2)NC3=NC=C4C(=N3)N(C5=CC=CC=C5C(=O)N4C)C)OC [XMD8-85] + Cc1nc(NC(=O)N2CCC[C@H]2C(N)=O)sc1-c1ccnc(C(C)(C)C(F)(F)F)c1 [Alpelisib] (partner 2 µM)
# How it was run: as §1
# 4EGI-1 + Linsitinib = compound: O=C(O)C(Cc1ccccc1[N+](=O)[O-])=NNc1nc(-c2ccc(Cl)c(Cl)c2)cs1 (mixture of isomers) [4EGI-1] + C[C@]1(O)C[C@@H](c2nc(-c3ccc4ccc(-c5ccccc5)nc4c3)c3c(N)nccn32)C1 [Linsitinib] (partner 1 µM)
# How it was run: as §1
# 4EGI-1 + Pemetrexed = compound: O=C(O)C(Cc1ccccc1[N+](=O)[O-])=NNc1nc(-c2ccc(Cl)c(Cl)c2)cs1 (mixture of isomers) [4EGI-1] + Nc1nc2[nH]cc(CCc3ccc(C(=O)N[C@@H](CCC(=O)O)C(=O)O)cc3)c2c(=O)[nH]1 [Pemetrexed] (partner 0.2 µM)
# How it was run: as §1
cell line,measurement,setting,value
NCI-H1792,relative viability,4EGI-1 + OSI-027; first compound 0.5 µM,0.886
same,relative viability,4EGI-1 + OSI-027; first compound 1.581 µM,0.75
same,relative viability,4EGI-1 + OSI-027; first compound 5 µM,0.62
same,relative viability,4EGI-1 + OSI-027; first compound 15.81 µM,0.579
same,relative viability,4EGI-1 + OSI-027; first compound 50 µM,0.503
same,relative viability,XMD8-85 + Alpelisib; first compound 0.08 µM,0.627
same,relative viability,XMD8-85 + Alpelisib; first compound 0.253 µM,0.642
same,relative viability,XMD8-85 + Alpelisib; first compound 2.53 µM,0.562
same,relative viability,XMD8-85 + Alpelisib; first compound 8 µM,0.723
same,relative viability,4EGI-1 + Linsitinib; first compound 0.5 µM,0.613
same,relative viability,4EGI-1 + Linsitinib; first compound 1.581 µM,0.444
same,relative viability,4EGI-1 + Linsitinib; first compound 5 µM,0.48
same,relative viability,4EGI-1 + Linsitinib; first compound 15.81 µM,0.441
same,relative viability,4EGI-1 + Linsitinib; first compound 50 µM,0.472
same,relative viability,4EGI-1 + Pemetrexed; first compound 0.5 µM,1.05
same,relative viability,4EGI-1 + Pemetrexed; first compound 1.581 µM,0.952
same,relative viability,4EGI-1 + Pemetrexed; first compound 5 µM,0.833
same,relative viability,4EGI-1 + Pemetrexed; first compound 15.81 µM,0.841
same,relative viability,4EGI-1 + Pemetrexed; first compound 50 µM,0.463

# Reference: the supplement of paper PMC10307832
